Assay results: patent US11471462B2, “Compositions and methods for detecting and treating diabetes” (THE BROAD INSTITUTE, INC., priority 2016, dated 2022)
Residues, ends and D or L forms follow the SMILES beside them. *: point of attachment. Cbz = O=C(OCc1ccccc1)*

Assays:
Assay type in all cases: cell-based, human
SLC16A11 protein [1] = assay: Proteasomal degradation: SLC16A11 protein levels by Western blot; conditions: HuH7 cells stably expressing SLC16A11^REF-V5; 5 μM for 3 hrs
Method: FIG. 5D (top panel) provides two Western blots showing that SLC16A11 is degraded by the proteasome and has a short half-life relative to other SLC16 family members. […] HEK293T cells expressing V5-tagged SLC16A11^REF, SLC16A13, or SLC16A1 were treated with cycloheximide (10 μg/mL) for the indicated times. Note that the SLC16A11, SLC16A13, and SLC16A1 images are from different exposure times. […] HuH7 cells stably expressing SLC16A11^REF-V5 were treated with MG132 (5 μM) or cyclohexamide for 3 hrs. FIG. 5D (bottom panel) provides Western blot showing SLC16A11 and BSG co-immunoprecipitations. (5D-A-5D-C): Co-immunoprecipitation of SLC16A11 and BSG confirms the reduced interaction between SLC16A11^T2D and BSG in HEK293T cells. BSG is glycosylated and runs as multiple bands by reducing SDS-PAGE. Molecular weight markers (kDa) are indicated. (5D-A): Interaction of BSG-V5 with immunoprecipitated SLC16A11-HA. (5D B): Interaction of SLC16A11-HA with immunoprecipitated BSG-V5. (C) Interaction of endogenous BSG with immunoprecipitated SLC16A11-HA. […]
Total protein concentration was measured using a BCA assay (Thermo Fisher Scientific) and equal quantities of protein were loaded on each gel. […] Signals were detected with HRP-conjugated secondary antibodies, followed by chemiluminescent detection and autoradiography. […]

SLC16A11 = assay: Metabolic effectors on SLC16A11 transcript levels in SNU761 cells; conditions: 24 hours, low and high concentrations
Method: (§1) FIG. 22 provides bar graphs showing the effects of low and high concentrations of metabolic effectors (oleic acid (OA), insulin and glucagon) on expression levels of SLC16A11 and SLC16A13 transcripts in SNU761 cells cultured for 24 hours in the presence of low/high concentrations of OA (0.3 mM/1.5 mM); insulin (100 nM/500 nM); or glucagon (100 nM/500 nM). Relative transcipt levels of SLC16A11 and SLC16A13 are shown, with 2-FBS (2% Fetal Bovine Serum) used as control.
(§2) FIG. 23 provides bar graphs showing the effects of low and high concentrations of pyruvate or lactate on expression levels of SLC16A11 and SLC16A13 transcripts in SNU761 cells cultured for 24 hours in the presence of 2 mM pyruvate (low), 10 mM pyruvate (high), 20 mM lactate (low), or 100 mM lactate (high). Relative transcipt levels of SLC16A11 and SLC16A13 are shown, compared with transcript levels in cell cultured in increasing concentrations of glucose.
(§3) To assess whether metabolic effectors regulated SLC16A11 and SLC16A13 transcript levels, endogenous transcripts in SNU761 cells (derived from a human hepatocellular carcinoma) were examined following exposure of the cells to different metabolic perturbations. SNU761 cells were cultured in the presence of various metabolic effectors for 24 hours after which time cell lysates were collected and the relative endogenous expression levels of SLC16A11 and SLC16A13 transcripts were assessed. The metabolic effectors included in the cell cultures included oleic acid (OA) at a low concentration (0.3 mM) or a high concentration (1.5 mM); insulin at a low concentration (100 nM) or a high concentration (500 nM) and glucagon at a low concentration (100 nM) and a high concentration (500 nM). Cells cultured in 2-FBS were used as a control. […] (FIG. 22). Similarly, SNU761 cells were cultured in the presence or absence of low or high concentrations of pyruvate or lactate in the culture medium for 24 hours after which time cell lysates were analyzed. In the cultures, low (L) pyruvate concentration was 2 mM; high (H) pyruvate concentration was 10 mM, and low lactate concentration was 20 mM, while high lactate concentration was 100 mM. […] (FIG. 23).

SLC16A13 = assay: Metabolic effectors on SLC16A13 transcript levels in SNU761 cells; conditions: 24 hours, high concentration (10 mM pyruvate, 100 mM lactate)
Method: as §1, §2, §3

SLC16A11 protein [2] = assay: SLC16A11 protein levels in HuH7 cells cultured with metabolites (Western blot); conditions: HuH7 cells stably expressing SLC16A11, cultured with metabolite 24 hr
From the text: FIG. 19 provides Western blots and experimental protocol steps involved in the analysis of SLC16A11 protein levels after culture of HuH7 cells stably expressing SLC16A11 in the presence or absence of various metabolites, namely, pyruvate, lactate and glucose. Cell lysates were used in the analysis. […] Tubulin is shown as a reference. As shown, glucose, pyruvate and […] are metabolites that affect SLC16A11 protein levels.
FIG. 20 provides Western blots of V5-tagged SLC16A11 (WT) and the V5-tagged SLC16A11 variant, T2D risk, stably expressed in HuH7 cells that had been glucose-starved for the times indicated. Cell lysates were used in the analysis. […] A similar finding is observed in the left blot of FIG. 19, above, in which no SLC16A11 protein was detected in cell lysates cultured for 24 hrs without glucose compared with detectable levels of SLC16A11 protein found in lysates from cultures containing 1-5 g/L of glucose.
FIG. 21 provides Western blots of V5-tagged SLC16A11 (WT) and the V5-tagged SLC16A11 variant, T2D risk, stably expressed in HuH7 cells that been cultured for 24 hours with or without glucose and with either low (L) or high (H) concentrations of pyruvate and lactate as indicated. Cell lysates were used in the analysis. […]

## CC(C)C[C@@H](C=O)NC(=O)[C@H](CC(C)C)NC(=O)[C@H](CC(C)C)NC(=O)OCc1ccccc1 [MG132] (Cbz-Leu-Leu-Leu-aldehyde)
SLC16A11 protein [1]
  SLC16A11 protein levels: increased

## CC(O)C(=O)O (stereo not shown) [lactate]
SLC16A11
  SLC16A11 transcript levels: alter transcripts at 17p13
SLC16A13
  relative transcript levels of SLC16A13: increased
SLC16A11 protein [2]
  SLC16A11 protein levels: alter SLC16A11 protein levels
